Source: ChEMBL document CHEMBL3137667, “[Drug-induced liver injury; fourteenth updated edition of the bibliographic database of liver injuries and related drugs]” (Gastroenterol Clin Biol, 2004)

Assays:
[1] = Highest frequency of moderate liver toxicity observed during clinical trials, expressed as a percentage. [column '% BIOL' in source]; details: human
[2] = Highest frequency of acute liver toxicity observed during clinical trials, expressed as a percentage. [column '% AIGUE' in source]; details: human
[3] = human, serum
[4] = human, serum; remark: listed apart in the source
[5] = human
[6] = human; remark: listed apart in the source
[7] = human; remark: listed apart in the source
[8] = human, serum, 4383 h
[9] = human; remark: listed apart in the source
[10] = human; remark: listed apart in the source
[11] = human; remark: listed apart in the source
[12] = human; remark: listed apart in the source
[13] = human; remark: listed apart in the source
[14] = human; remark: listed apart in the source
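For Hepatotoxicity (association with vascular disease) in this document: count of indexed literature references reporting vascular liver injury in humans, e.g. peliosis hepatitis, hepatic veno-occlusive disease or Budd-Chiari syndrome.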
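For Hepatotoxicity (benign tumour) in this document: value is a count of indexed literature references citing a benign tumour confirmed by histopathology.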
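For Hepatotoxicity (choleostasis) in this document: human cholestatic liver injury, shown by histopathology or by peak ALT or AST elevation over alkaline phosphatase ratio below 2, value counts indexed literature reports.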
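For Hepatotoxicity (chronic liver disease) in this document: chronic liver injury confirmed by histopathology or persistently raised serum aminotransferase activity beyond 6 months, value given as the count of indexed literature references.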
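For Hepatotoxicity (cirrhosis) in this document: value is a count of indexed literature references reporting cirrhosis confirmed by histopathology.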
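For Hepatotoxicity (cytolytic) in this document: human cytolytic liver injury, shown by histopathology or by a ratio above 5 of peak ALT or AST elevation to alkaline phosphatase elevation, value counts indexed references.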
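For Hepatotoxicity (granulomatous hepatitis) in this document: value is a count of indexed literature references reporting granulomatous liver disease confirmed by histopathology.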
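For Hepatotoxicity (malignant tumour) in this document: malignant tumour confirmed by histopathology, value gives the count of indexed literature references reporting it.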
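For Hepatotoxicity (severe hepatitis) in this document: human clinical data: severe hepatitis, meaning potentially life-threatening liver failure or clinically observed cases, the value counts how many indexed literature references report it.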
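For Hepatotoxicity (steatosis) in this document: steatosis confirmed by histopathology, value is the count of indexed references.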

SMILES	Hepatotoxicity (moderate) [1] [%]	Hepatotoxicity (acute) [2] [%]	Hepatotoxicity (moderate) [3]	Hepatotoxicity (acute) [4]	Hepatotoxicity (cytolytic) [5]	Hepatotoxicity (choleostasis) [6]	Hepatotoxicity (severe hepatitis) [7]	Hepatotoxicity (chronic liver disease) [8]	Hepatotoxicity (cirrhosis) [9]	Hepatotoxicity (granulomatous hepatitis) [10]	Hepatotoxicity (association with vascular disease) [11]	Hepatotoxicity (steatosis) [12]	Hepatotoxicity (malignant tumour) [13]	Hepatotoxicity (benign tumour) [14]
COC1=C(OC)C(=O)C(CCCCCCCCCCO)=C(C)C1=O [IDEBENONE]	2.3	0	1	0	0	0	0	0	0	0	0	0	0	0
O=P1(NCCCl)OCCCN1CCCl (stereo not drawn) [IFOSFAMIDE]	3.8	6	3	2	2	0	1	0	0	0	0	0	0	0
Cc1cnc(NCCCN(C)C)c2c1[nH]c1ccc3cc(O)ccc3c12 [INTOPLICINE]	0	3.8	0	1	0	0	0	0	0	0	0	0	0	0
O=C(CCOCCOCCOCCOCCC(=O)Nc1c(I)cc(I)c(C(=O)O)c1I)Nc1c(I)cc(I)c(C(=O)O)c1I [IODOXAMIC ACID]	0	0	1	1	0	0	0	0	0	0	0	0	0	0
O=C(COCC(=O)Nc1c(I)cc(I)c(C(=O)O)c1I)Nc1c(I)cc(I)c(C(=O)O)c1I [IOGLYCAMIC ACID]	0	0	1	0	0	0	0	0	0	0	0	0	0	0
O=C(COCCOCCOCC(=O)Nc1c(I)cc(I)c(C(=O)O)c1I)Nc1c(I)cc(I)c(C(=O)O)c1I [IOTROXIC ACID]	0	0	1	0	0	0	0	0	0	0	0	0	0	0
CN[C@@H]1[C@@H](O)[C@@H](O[C@@H]2[C@@H](O)[C@H](O[C@H]3O[C@H](CN)[C@@H](O)[C@H](O)[C@H]3O)[C@@H](N)C[C@H]2NC(=O)[C@@H](O)CN)OC[C@]1(C)O [ISEPAMICIN]	30	0	22	0	0	0	0	0	0	0	0	0	0	0
